Measured values reported in patent US9127027B2, “Epoxyeicosatrienoic acid analogs and methods of making and using the same” (The Medical College of Wisconsin, Inc., priority 2011, dated 2015).
pEC50: −log10 of the molar value. Read-outs that look alike come from different tables or passages of the source.

Columns and labels:
[1] = biological target: Human recombinant sEH (Homo sapiens (Human), UniProt P34913); experiment: Soluble epoxide hydrolase inhibition (PHOME fluorescent substrate); type: biochemical; conditions: Table 1 head prints μM (Table 2 prints nM for same numbers); read-out: sEHi IC50
Description: Compounds were tested for their ability to inhibit recombinant soluble epoxide hydrolase (sEH) protein. The assay utilizes (3-Phhenyl-oxiranyl)-acetic acid cyano-(6-methoxy-naphthalen-2-yl)-methyl ester (PHOME), a sensitive substrate for sEH that can be used to monitor the activity of both human and murine enzymes. […] Human recombinant sEH was incubated with substrate and compounds ranging in concentration from 0.1 to 1000 nM.

[2] = tested on: bovine coronary artery; experiment: Vasorelaxant activity in bovine coronary artery rings precontracted with U-46619; type: cell-based; conditions: for Vascular Relax. % (10 μM) / activation at 10 µM: 100% relaxation = basal pre-U-46619 tension; for pEC50: bovine coronary artery, read-out: Vascular Relax. EC50; for activation at 10 µM: read-out: Vascular Relax. % (10 μM)
Description: Vasorelaxant activity was measured in bovine coronary artery. Bovine hearts were obtained and the left anterior descending coronary artery was dissected and cleaned of connective tissue. Vessels of 1 mm diameter were cut into rings of 3 mm width as previously described (3, 27, 39). […] The vessels were suspended from a pair of stainless steel hooks in a 6-ml water-jacketed organ chamber. […] One hook was anchored to a steel rod and the other hook to a force transducer (model FT-03C; Grass Instruments, West Warwick, R.I.). Tension of the vessel was measured by an ETH-400 bridge amplifier, and the data were acquired with a MacLab 8e analog-to-digital converter and MacLab software version 3.5.6 (AD Instruments, Milford, Mass.) and stored on a Macintosh computer for subsequent data analysis.
Basal tension was set at the length-tension maximum of 3.5 g and equilibrated for 1.5 h. KCl (40 mM) was added to the chamber until reproducible maximal contractions were maintained. […] Cumulative additions of compounds were added to the chamber. Between concentration-response curves, the chambers were rinsed with fresh Krebs buffer, 40 mM KCl was administered to determine the maximum contraction, and the vessels were rinsed. Consecutive concentration-response curves were performed with 14,15-EET followed by a concentration-response curve to a compound. The experiment was always repeated with the order of the agonists reversed. […] The relaxation was plotted versus compound concentration and the EC50 determined utilizing statistical software.

Human recombinant sEH, sequence (P34913 whole entry): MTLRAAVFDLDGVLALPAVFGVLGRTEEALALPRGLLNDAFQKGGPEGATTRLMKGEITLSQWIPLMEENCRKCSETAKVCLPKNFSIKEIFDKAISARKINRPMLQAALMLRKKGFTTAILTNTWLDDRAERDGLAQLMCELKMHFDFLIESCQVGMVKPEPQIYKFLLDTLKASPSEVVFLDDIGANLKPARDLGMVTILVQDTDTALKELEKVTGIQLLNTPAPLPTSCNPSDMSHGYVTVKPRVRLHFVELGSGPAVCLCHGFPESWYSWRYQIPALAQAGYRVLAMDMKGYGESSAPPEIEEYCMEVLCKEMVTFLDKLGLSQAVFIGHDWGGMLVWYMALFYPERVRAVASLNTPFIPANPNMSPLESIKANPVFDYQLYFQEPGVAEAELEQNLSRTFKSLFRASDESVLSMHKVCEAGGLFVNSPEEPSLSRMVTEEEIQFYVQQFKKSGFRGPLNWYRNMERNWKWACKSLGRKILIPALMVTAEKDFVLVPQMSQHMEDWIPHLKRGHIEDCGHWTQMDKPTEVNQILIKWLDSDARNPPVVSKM

Row | IC50 [1] | pEC50 [2] | pEC50 ([2]; Bos taurus) | SMILES | Vascular Relax. % (10 μM) [2] | activation at 10 µM ([2]; Bos taurus)
1 | > 0.5 µM | 5.54 |  | CCCCCCC(=O)N(CCCC/C=C\CCCCCCC(=O)OCCOCCOCCO)C(C)C [Compound 1, 2-(2-(2-Hydroxyethoxy)ethoxy)ethyl 13-(N-isopropylheptanamido)tridec-8(Z)-enoate] | 86% | 
2 |  | 5.29 |  | CCCCCNC(=O)NCCCC/C=C\CCCCCCC(=O)OCCOCCOCCO [Compound 2, 2-(2-(2-Hydroxyethoxy)ethoxy)ethyl 13-(3-n-pentylureido)tridec-8(Z)-enoate] | 72% | 
3 | > 0.5 µM | 5.82 |  | CCCCNC(=O)C(=O)NCCCC/C=C\CCCCCCC(=O)OCCOCCOCCO [Compound 3, 2-(2-(2-Hydroxyethoxy)ethoxy)ethyl13-(2-(n-butylamino)-2 oxoacetamido)tridec-8(Z)-enoate] | 104% | 
4 | 0.237 µM |  | 6.20 | CCCCCNC(=O)NCCCC/C=C\CCCCOCC(=O)O [Compound 4, 2-(10-(3-n-Pentylureido)dec-5(Z)-enyloxy)acetic acid] | 49% | 
5 |  |  | 5.72 | CCCCCCC(=O)N(CCCC/C=C\CCCCCCC(=O)NCC(=O)O)C(C)C [Compound 5, 2-(13-(N-Isopropylheptanamido)tridec-8(Z)-enamido)acetic acid] | 95% | 
6 | > 0.5 µM |  | 5.56 | CCCCCN(C)C(=O)N(C)CCCC/C=C\CCCCCCC(=O)NCC(=O)O [Compound 6, 2-(13-(1,3-Dimethyl-3-n-pentylureido)tridec-8(Z)-enamido)acetic acid] | 92% | 
7 | 0.041 µM |  | 5.22 | CCCCCNC(=O)NCCCC/C=C\CCCCCCC(=O)NS(=O)(=O)c1ccccc1 [Compound 8, 13-(3-n-Pentylureido)-N-(phenylsulfonyl)tridec-8(Z)-enamide] | 73% | 
8 | 0.071 µM |  | 5.17 | CCCCCNC(=O)NCCCC/C=C\CCCCCCC(=O)NS(C)(=O)=O [Compound 9, N-(Methylsulfonyl)-13-(3-n-pentylureido)tridec-8(Z)-enamide] | 61% | 
9 | 0.057 µM |  | 5.12 | CCCCCNC(=O)NCCCC/C=C\CCCCCCS(=O)(=O)[O-].[Na+] [Compound 11] | 63% | 
10 | 0.032 µM |  | 5.47 | CCCCCNC(=O)NCCCC/C=C\CCCCCNS(=O)(=O)c1ccccc1 [Compound 12, N-(11-(3-n-Pentylureido)undec-6(Z)-enyl)benzenesulfonamide] |  | 75%
11 | 0.006 µM |  | < 5.00 | CCCCCNC(=O)NCCCC/C=C\CCCCCSc1ccccc1O [Compound 13, 1-(11-(2-Hydroxyphenylthio)undec-5(Z)-enyl)-3-n-pentylurea] |  | 48%
12 |  |  | 5.30 | CCCCCNC(=O)NCCCC/C=C\CCCCCS(=O)(=O)c1ccccc1O [Compound 14, 1-(11-(2-Hydroxyphenylsulfonyl)undec-5(Z)-enyl)-3-n-pentylurea] |  | 76%
13 | 0.022 µM |  | 5.43 | CCCCCNC(=O)NCCCC/C=C\CCCCCSc1nnn[nH]1 [Compound 15, 1-(11-(1H-Tetrazol-5-ylthio)undec-5(Z)-enyl)-3-pentylurea] |  | 85%
14 | 0.032 µM |  | 5.01 | CCCCCNC(=O)NCCCC/C=C\CCCCCSc1ncn[nH]1 [Compound 16] |  | 53%
15 | 0.096 µM |  | 5.46 | CCCCCNC(=O)NCCCC/C=C\CCCCC[S+]([O-])c1ncn[nH]1 (stereo not shown) [Compound 17] |  | 92%
16 | 0.023 µM |  | 5.51 | CCCCCNC(=O)NCCCC/C=C\CCCCCS(=O)(=O)c1ncn[nH]1 [Compound 18] |  | 92%
17 |  |  | 6.00 | CCCCCCC(=O)N(CCCC/C=C\CCCCCCc1nnn[nH]1)C(C)C [Compound 19] | 74% | 
18 | > 0.5 µM |  | 5.77 | CCCCNC(=O)C(=O)NCCCC/C=C\CCCCCCc1nnn[nH]1 [Compound 21] | 96% | 
19 | 0.032 µM |  | 5.96 | CCCCCNC(=O)NCCCC/C=C\CCCCCCCc1nnn[nH]1 [Compound 22, 1-(13-(1H-Tetrazol-5-yl)tridec-5(Z)-enyl)-3-n-pentylurea] | 110% | 
20 | 0.065 µM |  | 5.96 | CCCCCNC(=O)NCCCC/C=C\CCCCCCc1noc(=O)[nH]1 [Compound 23] | 89% | 
21 | 0.057 µM |  | < 5.00 | CCCCCNC(=O)NCCCC/C=C\CCCCCC1SC(=O)NC1=O (stereo not shown) [Compound 24, 1-(11-(2,4-Dioxothiazolidin-5-yl)undec-5(Z)-enyl)-3-n-pentylurea] |  | 47%
22 | 0.01 µM |  | 6.47 | CCCCCNC(=O)NCCCC/C=C\CCCCCCC1=NOS(=O)N1 (stereo not shown) [Compound 25] | 109% | 
23 | > 0.5 µM |  | 6.44 | CCCCNC(=O)C(=O)NCCCC/C=C\CCCCCCC1=NOS(=O)N1 (stereo not shown) [Compound 27] |  | 116%
24 | 0.031 µM |  | 5.48 | CCCCCNC(=O)NCCCC/C=C\CCCCCCc1noc(=S)[nH]1 [Compound 28] | 93% | 
25 | 0.231 µM |  | 5.62 | CCCCCNC(=O)NCCCC/C=C\CCCCCCc1nsc(=O)[nH]1 [Compound 29] | 54% | 
26 | > 0.5 µM |  | 6.05 | CCCCCNC(=O)NCCCCCOc1cccc2sc(NC(C)=O)nc12 [Compound 31, N-(4-(5-(3-n-Pentylureido)pentyloxy)benzo[d]thiazol-2-yl)acetamide] | 73% | 
27 |  |  | 5.62 | CCCCNC(=O)C(=O)NCCCCCOc1cccc2sc(NC(C)=O)nc12 [Compound 32] | 96% | 

Row | SMILES | IC50 [1] | pEC50 [2] | pEC50 ([2]; Bos taurus) | Vascular Relax. % (10 μM) [2] | activation at 10 µM ([2]; Bos taurus)
28 | CCCCCNC(=O)NCCCC/C=C\CCCCCCP(=O)([O-])[O-].[Na+].[Na+] [Compound 10] | > 0.5 µM |  | < 5.00 | 71% | 
